{
  "source": "patent US9149038B2",
  "about": "“4-amino-6-(heterocyclic)picolinates and 6-amino-2-(heterocyclic)pyrimidine-4-carboxylates and their use as herbicides” (Dow AgroSciences LLC, priority 2013, dated 2015)",
  "test_system": "Wheat and Barley and weed species",
  "test": "Post-Emergent Test III: postemergent herbicidal activity in wheat and barley, visual rating after 21 d and probit GR20/GR50/GR80/GR90 (Tables 9-13)",
  "format": "in vivo",
  "details": "for pest or weed control at 17.5 g/ha / pest or weed control at 35 g/ha / pest or weed control at 70 g/ha: post-emergence, 504 h",
  "text": "Herbicidal evaluations were made visually on a scale of 0 to 100 where 0 represents no activity and 100 represents complete plant death.\nSeeds of the desired test plant species were planted in Sun Gro MetroMix® 306 planting mixture, which typically has a pH of 6.0 to 6.8 and an organic matter content of about 30 percent, in plastic pots with a surface area of 103.2 square centimeters (cm^2). When required to ensure good germination and healthy plants, a fungicide treatment and/or other chemical or physical treatment was applied. The plants were grown for 7-36 days (d) in a greenhouse with an approximate 14 hour (h) photoperiod which was maintained at about 18° C. during the day and 17° C. during the night. Nutrients and water were added on a regular basis and supplemental lighting was provided with overhead metal halide 1000-Watt lamps as necessary. The plants were employed for testing when they reached the second or third true leaf stage.\nA weighed amount, determined by the highest rate to be tested, of each test compound was placed in a 25 mL glass vial and was dissolved in 4 mL of a 97:3 v/v mixture of acetone and DMSO to obtain concentrated stock solutions. […] The concentrated stock solutions obtained were diluted with 20 mL of an aqueous mixture containing acetone, water, isopropyl alcohol, DMSO, Agri-Dex crop oil concentrate, and X-77 surfactant in a 48:39:10:1.5:1.5:0.02 v/v ratio to obtain spray solutions containing the highest application rates. Additional application rates were obtained by serial dilution of 12 mL of the high rate solution into a solution containing 2 mL of a 97:3 v/v mixture of acetone and DMSO and 10 mL of an aqueous mixture containing acetone, water, isopropyl alcohol, DMSO, Agri-Dex crop oil concentrate, and X-77 surfactant in a 48:39:10:1.5:1.5:0.02 v/v ratio to obtain ½×, ¼×, ⅛× and 1/16× rates of the high rate. Compound requirements are based upon a 12 mL application volume at a rate of 187 liters per hectare (L/ha). Formulated compounds were applied to the plant material with an overhead Mandel track sprayer equipped with 8002E nozzles calibrated to deliver 187 L/ha over an application area of 0.503 square meters at a spray height of 18 inches (43 cm) above the average plant canopy height. Control plants were sprayed in the same manner with the solvent blank.\nThe treated plants and control plants were placed in a greenhouse as described above and watered by subirrigation to prevent wash-off of the test compounds. After 21 d, the condition of the test plants as compared with that of the untreated plants was determined visually and scored on a scale of 0 to 100 percent where 0 corresponds to no injury and 100 corresponds to complete kill and are presented as indicated in Table 4.\nBy applying the well-accepted probit analysis as described by J. Berkson in Journal of the American Statistical Society, 48, 565 (1953) and by D. Finney in “Probit Analysis” Cambridge University Press (1952), herbicidal injury of a specific compound at various rates can be used to calculate GR20, GR50, GR80 and GR90 values, which are defined as growth reduction factors that correspond to the effective dose of herbicide required to provide plant growth reduction (GR) of 20 percent, 50 percent, 80 percent and 90 percent, respectively. Probit analysis was applied to data collected from multiple dose rates of individual compounds utilizing the procedures explained in the following examples. The data for some of the dose rates and analysis of all of the dose rates are captured in the following tables.",
  "note": "Where two headings read alike, the source gives them in different places.",
  "data": [
    {"compound": "COC(=O)c1nc(-c2ccc3c(c2)OC(C)(C)O3)c(F)c(N)c1Cl", "note": "[Compound 8]", "values": [
      {"measurement": "GR50 ALOMY", "setting": "ALOMY black-grass (Alopecurus myosuroides), growth reduction of 50%, probit analysis", "value": ">70", "unit": "g ai/ha"},
      {"measurement": "GR80 ALOMY", "setting": "ALOMY black-grass (Alopecurus myosuroides), growth reduction of 80%, probit analysis", "value": ">70", "unit": "g ai/ha"},
      {"measurement": "GR90 ALOMY", "setting": "ALOMY black-grass (Alopecurus myosuroides), growth reduction of 90%, probit analysis", "value": ">70", "unit": "g ai/ha"},
      {"measurement": "GR50 APESV", "setting": "APESV bentgrass (Apera spica-venti), growth reduction of 50%, probit analysis", "value": 22, "unit": "g ai/ha"},
      {"measurement": "GR80 APESV", "setting": "APESV bentgrass (Apera spica-venti), growth reduction of 80%, probit analysis", "value": 36, "unit": "g ai/ha"},
      {"measurement": "GR90 APESV", "setting": "APESV bentgrass (Apera spica-venti), growth reduction of 90%, probit analysis", "value": 46, "unit": "g ai/ha"},
      {"measurement": "GR20 HORVS", "setting": "HORVS barley, spring (crop), growth reduction of 20%, probit analysis", "value": 7, "unit": "g ai/ha"},
      {"measurement": "pest or weed control at 17.5 g/ha", "setting": "Hordeum vulgare, HORVS barley, spring (crop), 17.5 g ai/ha, read-out: Visual Growth Reduction (%) 21 Days After Application HORVS", "value": "30 to 44", "unit": "%"},
      {"measurement": "pest or weed control at 35 g/ha", "setting": "Hordeum vulgare, HORVS barley, spring (crop), 35 g ai/ha, read-out: Visual Growth Reduction (%) 21 Days After Application HORVS", "value": "60 to 74", "unit": "%"},
      {"measurement": "pest or weed control at 70 g/ha", "setting": "Hordeum vulgare, HORVS barley, spring (crop), 70 g ai/ha, read-out: Visual Growth Reduction (%) 21 Days After Application HORVS", "value": "60 to 74", "unit": "%"},
      {"measurement": "Visual Growth Reduction (%) 21 Days After Application KCHSC", "setting": "KCHSC kochia (Kochia scoparia), 17.5 g ai/ha", "value": "E (45-59)"},
      {"measurement": "Visual Growth Reduction (%) 21 Days After Application KCHSC", "setting": "KCHSC kochia (Kochia scoparia), 35 g ai/ha", "value": "D (60-74)"},
      {"measurement": "Visual Growth Reduction (%) 21 Days After Application KCHSC", "setting": "KCHSC kochia (Kochia scoparia), 70 g ai/ha", "value": "D (60-74)"},
      {"measurement": "GR50 KCHSC", "setting": "KCHSC kochia (Kochia scoparia), growth reduction of 50%, probit analysis", "value": 21, "unit": "g ai/ha"},
      {"measurement": "GR80 KCHSC", "setting": "KCHSC kochia (Kochia scoparia), growth reduction of 80%, probit analysis", "value": ">70", "unit": "g ai/ha"},
      {"measurement": "GR90 KCHSC", "setting": "KCHSC kochia (Kochia scoparia), growth reduction of 90%, probit analysis", "value": ">70", "unit": "g ai/ha"},
      {"measurement": "GR50 LOLSS", "setting": "LOLSS ryegrass, growth reduction of 50%, probit analysis", "value": ">70", "unit": "g ai/ha"},
      {"measurement": "GR80 LOLSS", "setting": "LOLSS ryegrass, growth reduction of 80%, probit analysis", "value": ">70", "unit": "g ai/ha"},
      {"measurement": "GR90 LOLSS", "setting": "LOLSS ryegrass, growth reduction of 90%, probit analysis", "value": ">70", "unit": "g ai/ha"},
      {"measurement": "GR50 SETVI", "setting": "SETVI green foxtail (Setaria viridis), growth reduction of 50%, probit analysis", "value": 11, "unit": "g ai/ha"},
      {"measurement": "GR80 SETVI", "setting": "SETVI green foxtail (Setaria viridis), growth reduction of 80%, probit analysis", "value": 72, "unit": "g ai/ha"},
      {"measurement": "GR90 SETVI", "setting": "SETVI green foxtail (Setaria viridis), growth reduction of 90%, probit analysis", "value": ">70", "unit": "g ai/ha"},
      {"measurement": "GR20 TRZAS", "setting": "TRZAS wheat, spring (crop), growth reduction of 20%, probit analysis", "value": 6, "unit": "g ai/ha"},
      {"measurement": "pest or weed control at 17.5 g/ha", "setting": "Triticum aestivum, TRZAS wheat, spring (crop), 17.5 g ai/ha, read-out: Visual Growth Reduction (%) 21 Days After Application TRZAS", "value": "30 to 44", "unit": "%"},
      {"measurement": "pest or weed control at 35 g/ha", "setting": "Triticum aestivum, TRZAS wheat, spring (crop), 35 g ai/ha, read-out: Visual Growth Reduction (%) 21 Days After Application TRZAS", "value": "60 to 74", "unit": "%"},
      {"measurement": "pest or weed control at 70 g/ha", "setting": "Triticum aestivum, TRZAS wheat, spring (crop), 70 g ai/ha, read-out: Visual Growth Reduction (%) 21 Days After Application TRZAS", "value": "60 to 74", "unit": "%"},
      {"measurement": "pest or weed control at 17.5 g/ha", "setting": "ALOMY black-grass (Alopecurus myosuroides), 17.5 g ai/ha, read-out: Visual Growth Reduction (%) 21 Days After Application ALOMY", "value": "0 to 29", "unit": "%"},
      {"measurement": "pest or weed control at 35 g/ha", "setting": "ALOMY black-grass (Alopecurus myosuroides), 35 g ai/ha, read-out: Visual Growth Reduction (%) 21 Days After Application ALOMY", "value": "30 to 44", "unit": "%"},
      {"measurement": "pest or weed control at 70 g/ha", "setting": "ALOMY black-grass (Alopecurus myosuroides), 70 g ai/ha, read-out: Visual Growth Reduction (%) 21 Days After Application ALOMY", "value": "45 to 59", "unit": "%"},
      {"measurement": "pest or weed control at 17.5 g/ha", "setting": "APESV bentgrass (Apera spica-venti), 17.5 g ai/ha, read-out: Visual Growth Reduction (%) 21 Days After Application APESV", "value": "0 to 29", "unit": "%"},
      {"measurement": "pest or weed control at 35 g/ha", "setting": "APESV bentgrass (Apera spica-venti), 35 g ai/ha, read-out: Visual Growth Reduction (%) 21 Days After Application APESV", "value": "85 to 94", "unit": "%"},
      {"measurement": "pest or weed control at 70 g/ha", "setting": "APESV bentgrass (Apera spica-venti), 70 g ai/ha, read-out: Visual Growth Reduction (%) 21 Days After Application APESV", "value": "85 to 94", "unit": "%"},
      {"measurement": "pest or weed control at 17.5 g/ha", "setting": "LOLSS ryegrass, 17.5 g ai/ha, read-out: Visual Growth Reduction (%) 21 Days After Application LOLSS", "value": "0 to 29", "unit": "%"},
      {"measurement": "pest or weed control at 35 g/ha", "setting": "LOLSS ryegrass, 35 g ai/ha, read-out: Visual Growth Reduction (%) 21 Days After Application LOLSS", "value": "0 to 29", "unit": "%"},
      {"measurement": "pest or weed control at 70 g/ha", "setting": "LOLSS ryegrass, 70 g ai/ha, read-out: Visual Growth Reduction (%) 21 Days After Application LOLSS", "value": "30 to 44", "unit": "%"},
      {"measurement": "pest or weed control at 17.5 g/ha", "setting": "SETVI green foxtail (Setaria viridis), 17.5 g ai/ha, read-out: Visual Growth Reduction (%) 21 Days After Application SETVI", "value": "60 to 74", "unit": "%"},
      {"measurement": "pest or weed control at 35 g/ha", "setting": "SETVI green foxtail (Setaria viridis), 35 g ai/ha, read-out: Visual Growth Reduction (%) 21 Days After Application SETVI", "value": "75 to 84", "unit": "%"},
      {"measurement": "pest or weed control at 70 g/ha", "setting": "SETVI green foxtail (Setaria viridis), 70 g ai/ha, read-out: Visual Growth Reduction (%) 21 Days After Application SETVI", "value": "75 to 84", "unit": "%"}
    ]}
  ]
}
